Measurements published in patent US4990531A, “Derivatives of 1-arylsulphonyl-2-pyrrolidinone and their use as medicaments” (Roussel Uclaf, priority 1988, dated 1991).

How the values were obtained:
[1] = test system: contractions induced by histamine, isolated ileum; assay: Antagonism of histamine-induced contractions, isolated guinea-pig ileum; details: histamine 1×10^-5 M; contact time one minute; read-out: Antagonism with various agents (IC50): Istam.
Description: (§1) The interaction of the compounds with various receptors was evaluated on the isolated ileum of a guinea-pig according to the following method.
(§2) Segments of the ileum of guinea-pigs of 2.5-3 cm were washed and immediately suspended in a bath containing 10 ml of Tyrode's solution at 37° C. and aerated with a mixture of oxygen (95%) and carbon dioxide (5%). After a stabilization period of at least 30 minutes contractions were recorded, while the preparation was maintained under constant tension of 1 g, by means of a detector connected to a polygraph. The agonistic action was evaluated by leaving the compound in contact with the isolated tissue for a period necessary to show the maximum […]; then it was washed with the Tyrode's solution. The following dose was added only after the preparation had returned to its base line. Arecoline was used as a reference product. The antagonist action was evaluated on the contractions induced by acetylcholine (1×10^-6 M), histamine (1×10^-5 M), serotonine (1×10^-6 M) and barium chloride (2×10^-4 M). […] The contact time before adding the agonist was one minute.
(§3) For each compound the does response curves are obtained with 4 to 6 different concentrations and 3 to 5 independent tests. The agonist activity is expressed by pD2 (negative logarithm of the dose which produces 50% of the maximum effect).

[2] = target: serotonine 5 HT1 receptor; assay: Affinity for other receptors: serotonine 5 HT1; format: binding; details: negligible affinity
GABA receptor = assay: Affinity for other receptors: GABA; format: binding; details: negligible affinity
dopamine receptor = assay: Affinity for other receptors: dopamine; format: binding; details: negligible affinity
opiated receptor kappa = opiated receptor kappa (Homo sapiens, UniProt P41145); assay: Affinity for other receptors: opiated receptor kappa; format: binding; details: negligible affinity
adrenoreceptor beta 2 = adrenoreceptor beta 2 (Homo sapiens, UniProt P07550); assay: Affinity for other receptors: adrenoreceptor beta 2; format: binding; details: negligible affinity
isolated ileum = assay: Agonist action on isolated guinea-pig ileum; details: negative logarithm of the dose producing 50% of maximum effect
Description: as §1, §2, §3

benzodiazepine receptor = assay: Affinity for other receptors: benzodiazepines; format: binding; details: negligible affinity
[3] = test system: contractions induced by serotonine, isolated ileum; assay: Antagonism of serotonine-induced contractions, isolated guinea-pig ileum; details: serotonine 1×10^-6 M; contact time one minute; read-out: Antagonism with various agents (IC50): Seroton.
Description: as §1, §2, §3

adrenoreceptor beta 1 = adrenoreceptor beta 1 (Homo sapiens, UniProt P08588); assay: Affinity for other receptors: adrenoreceptor beta 1; format: binding; details: negligible affinity
[4] = test system: contractions induced by acetylcholine, isolated colon; assay: Antagonism of acetylcholine-induced contractions, isolated colon of rat; details: acetylcholine 3×10^-6 M; contact 3 minutes
Description: The remarkable antagonist action of the compounds of the invention was confirmed on the isolated colon of rats. In this test it was established whether the antagonist activity was of competitive or non-competitive type.
The following method was used: segments of the colon of rats of about 2.5 cm are washed and suspended in an insulated bath containing 10 ml of a solution of De Jalon having the following composition: (mM): NaCl 154; KCl 5.7; CaCl2 0.27; NaHCO3 5.9 and glucose 2.5. The temperature of the bath is maintained at 32° C. In these conditions, while maintaining the preparation under a tension of 1 g, the spontaneous activity of the colon is minimal. After a stabilization period of at least 30 minutes, the tension variations are recorded using an isometric transducer connected to a recorder. A series of tests was carried out to evaluate the antagonist activity in relation to the contractions induced by a maximum dose of acetylcholine. (3×10^-6 M).
The compounds are left in contact with the preparation for 3 minutes before adding acetylcholine.
Atropine was used as a reference product. For each compound the dose-response curves are obtained with 4 to 6 different concentrations and 3 to 5 independent tests.

[5] = test system: contractions induced by barium chloride, isolated ileum; assay: Antagonism of barium chloride-induced contractions, isolated guinea-pig ileum; details: barium chloride 2×10^-4 M; contact time one minute; read-out: Antagonism with various agents (IC50): BaCL2
Description: as §1, §2, §3

adrenoreceptor alpha 1 = assay: Affinity for other receptors: adrenoreceptor alpha 1; format: binding; details: negligible affinity
opiated receptor mu = opiated receptor mu (Homo sapiens, UniProt P35372); assay: Affinity for other receptors: opiated receptor mu; format: binding; details: negligible affinity
Muscarine receptor 2 = assay: Bonding with cerebral receptors: muscarine receptor 2 (3H quinuclidinyl benzylate, rat brain); format: binding; details: 0.3 nM 3H quinuclidinyl benzylate, 60 min, 25° C., pH 7.5; read-out: Affinity for muscarine receptor M2 (/3H/Quinuclidinyl benzylate), IC50
Description: The preparation is made from the brains of a male rat weighing 150 to 200 g (Iffa Credo).
The brains are pulverized (Teflon-glass) in a 0.32M solution of sucrose. The homogenate is centrifuged for 10 minutes at 1000 g (0°-4° C.).
The supernatant obtained is recovered and centrifuged at 30,000 g for 15 minutes (0°-4° C.).
The deposit is put in suspension in a buffer Tris 50 mM pH 7.5 and the new homogenate is centrifuged again at 30,000 g for 15 minutes (0°-4° C.).
The deposits after elimination of the supernatant, can be used straight-away or kept for up to one month at -30° C.
For one experiment the deposits are first of all thawed out, if necessary, to ambient temperature and put in suspension, using a Dounce, in a buffer Tris 50 mM pH 7.5. Aliquots of 2 ml are incubated for 60 minutes at 25° C. in the presence of 0.3 nM of ^3 H quinuclidinyl benzylate either alone, or with the product under test, or with benzatropine at 10^-5 M in order to determine the non-specific radioactivity fixed.
At the end of the incubation the incubate tubes are cooled to 4° C. and filtered rapidly on Whatman GF/C filters. The filters are rinsed with 3×5 ml of buffer Tris 50 mM pH 7.5, then measurements are made by liquid scintillation [Henry I Yamamura, Solomon H. Snyder, Proc. Nat. Acad. Sc. (1974) 71 No. 5, 1725-1729).

opiated receptor kappa, sequence (P41145 whole entry): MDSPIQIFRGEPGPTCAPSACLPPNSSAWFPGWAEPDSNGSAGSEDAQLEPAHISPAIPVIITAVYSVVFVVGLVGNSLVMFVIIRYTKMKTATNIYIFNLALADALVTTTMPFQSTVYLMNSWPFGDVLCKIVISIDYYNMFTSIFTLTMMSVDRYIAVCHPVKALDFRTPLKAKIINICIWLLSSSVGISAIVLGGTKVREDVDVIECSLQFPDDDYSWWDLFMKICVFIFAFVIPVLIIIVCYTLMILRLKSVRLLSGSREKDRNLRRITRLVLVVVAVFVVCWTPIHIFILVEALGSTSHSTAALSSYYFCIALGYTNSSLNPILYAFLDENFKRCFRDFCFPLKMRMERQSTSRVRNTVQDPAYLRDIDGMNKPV
opiated receptor mu, sequence (P35372 whole entry): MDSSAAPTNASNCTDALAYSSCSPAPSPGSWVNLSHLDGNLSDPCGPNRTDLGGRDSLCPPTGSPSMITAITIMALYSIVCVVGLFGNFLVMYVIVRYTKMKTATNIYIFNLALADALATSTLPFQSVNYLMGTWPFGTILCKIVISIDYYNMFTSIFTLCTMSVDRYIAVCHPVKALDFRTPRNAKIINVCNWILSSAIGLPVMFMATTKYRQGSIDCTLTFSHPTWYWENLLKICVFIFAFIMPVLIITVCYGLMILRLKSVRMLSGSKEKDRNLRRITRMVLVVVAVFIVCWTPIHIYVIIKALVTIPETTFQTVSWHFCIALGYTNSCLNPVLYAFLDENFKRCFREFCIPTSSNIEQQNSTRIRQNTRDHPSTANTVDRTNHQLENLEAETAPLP
adrenoreceptor beta 2, sequence (P07550 whole entry): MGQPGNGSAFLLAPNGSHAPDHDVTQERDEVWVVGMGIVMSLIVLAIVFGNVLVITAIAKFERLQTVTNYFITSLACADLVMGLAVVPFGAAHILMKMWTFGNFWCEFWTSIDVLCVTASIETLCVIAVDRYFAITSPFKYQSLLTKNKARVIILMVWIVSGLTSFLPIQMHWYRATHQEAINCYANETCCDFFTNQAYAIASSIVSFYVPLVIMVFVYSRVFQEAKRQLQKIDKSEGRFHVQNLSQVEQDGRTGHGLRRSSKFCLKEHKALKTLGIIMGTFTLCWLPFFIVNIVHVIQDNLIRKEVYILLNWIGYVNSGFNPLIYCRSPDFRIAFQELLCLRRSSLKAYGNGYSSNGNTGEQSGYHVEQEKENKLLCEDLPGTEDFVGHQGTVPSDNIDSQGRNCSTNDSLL
adrenoreceptor beta 1, sequence (P08588 whole entry): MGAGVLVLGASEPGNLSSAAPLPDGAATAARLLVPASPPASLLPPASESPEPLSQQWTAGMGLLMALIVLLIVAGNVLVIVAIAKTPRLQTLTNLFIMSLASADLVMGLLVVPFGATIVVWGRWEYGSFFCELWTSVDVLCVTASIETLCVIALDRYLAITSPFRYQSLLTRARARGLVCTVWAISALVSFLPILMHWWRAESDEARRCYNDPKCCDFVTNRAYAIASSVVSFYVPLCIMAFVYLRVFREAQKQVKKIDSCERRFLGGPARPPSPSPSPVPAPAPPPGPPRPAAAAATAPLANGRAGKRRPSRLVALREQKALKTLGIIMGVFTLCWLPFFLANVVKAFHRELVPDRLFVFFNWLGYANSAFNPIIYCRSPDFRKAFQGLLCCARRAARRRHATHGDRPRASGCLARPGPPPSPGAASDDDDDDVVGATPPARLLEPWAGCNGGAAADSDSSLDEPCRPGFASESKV

For `CC(C)(C)c1ccc(S(=O)(=O)N2CCCC2=O)cc1` [Example 1, 1-(4-tert-butylbenzenesulphonyl)-2-pyrrolidinone], the IC50 [1] was > 100 µM, the IC50 [2] was 5 to 10 µM and the IC50 (GABA receptor) was 5 to 10 µM. For the same compound, the IC50 (dopamine receptor) was 5 to 10 µM, the IC50 (opiated receptor kappa) was 5 to 10 µM and the IC50 (adrenoreceptor beta 2) was 5 to 10 µM. The “Agonist Action (pD2)” value (isolated ileum) was < 4, the IC50 (benzodiazepine receptor) was 5 to 10 µM and the IC50 [3] was > 100 µM. The IC50 (adrenoreceptor beta 1) was 5 to 10 µM, the IC50 [4] was 0.28 µM and the IC50 [5] was 16 µM. It also gave an IC50 (adrenoreceptor alpha 1) of 5 to 10 µM, an IC50 (opiated receptor mu) of 5 to 10 µM and an IC50 (Muscarine receptor 2) of 1.3 µM.

For `CCN(CC)c1ccc(S(=O)(=O)N2CCCC2=O)cc1` [Example 2, 1-[4-(diethylamino)benzenesulphonyl]-2-pyrrolidinone], the IC50 [1] was > 100 µM, the IC50 [2] was 5 to 10 µM and the IC50 (GABA receptor) was 5 to 10 µM. The IC50 (dopamine receptor) was 5 to 10 µM, the IC50 (opiated receptor kappa) was 5 to 10 µM and the IC50 (adrenoreceptor beta 2) was 5 to 10 µM. The “Agonist Action (pD2)” value (isolated ileum) was < 4, the IC50 (benzodiazepine receptor) was 5 to 10 µM and the IC50 [3] was > 100 µM. For the same compound, the IC50 (adrenoreceptor beta 1) was 5 to 10 µM, the IC50 [4] was 0.16 µM and the IC50 [5] was 6 µM. The IC50 (adrenoreceptor alpha 1) was 5 to 10 µM, the IC50 (opiated receptor mu) was 5 to 10 µM and the IC50 (Muscarine receptor 2) was 1.3 µM.
